The source of these data is patent publication US9233932B2, “Oligomer-nitroimidazole anti-infective conjugates” (NEKTAR THERAPEUTICS, priority 2007, dated 2016).

In brackets after ≈: the same amount, converted by molar mass. Like-named read-outs stand apart in the source and are kept apart here. A value given as a limit tells only on which side of the number the result lay.

The subject of experiment [1] is Giardia intestinalis Portland-1 (ATCC 30888). As to the kind of experiment: Minimum inhibitory concentration determination, micro-broth dilution, trophozoite motility. Format: cell-based. Conditions: for Fold Difference (Parent vs. Derivative): MIC of derivative relative to metronidazole; for activity relative to parent metronidazole: qualitative statement on MIC results. On the procedure: Briefly, minimum inhibitory concentration was evaluated in an anti-protozoal assay against a protozoan strain, Giardia intestinalis Portland-1 (ATCC 30888), isolated from human. The organism, also referred to as Giardia lamblia, causes infection in the small intestine.
The susceptibility of G. intestinalis to the test compounds was determined using the micro-broth dilution analysis. The protozoan strain was cultured according to the supplier's recommendations. Thirteen milliliters of growth media (TYI-S-33 supplemented with bile) was inoculated with 100 μL of G. intestinalis growing culture and incubated at 37° C. for 72 hours. Following incubation, each test compound was diluted (in growth medium) to two times the high test concentration then further diluted in 1:2 increments to yield 11 test concentrations. Each test concentration (100 μL) was added in triplicate to designated wells on the plate. Trophozoites were added to each well of a 96-well round bottom plate in a volume of 100 μL at a density of 40,000 per well. The plates were cultured for 24 hours in an anaerobic chamber to assure the presence of low oxygen level.
Following the treatment incubation, cultures were visually evaluated for trophozoite motility. At each concentration, data was recorded as positive or negative for motility.
Each test compound was dissolved in DMSO to a final concentration of 80 mM. […] The starting high test concentration was to be as high as possible.
Background: Broth dilution looks for growth in wells or tubes with falling amounts of substance.

The test system of experiment [2] is Giardia intestinalis. As to the kind of experiment: In vitro antigiardial activity assay. Format: cell-based. On the procedure: Metronidazole (from two different sources) and samples prepared in accordance with Examples 1 and 2 were tested using conventional antimicrobial assay techniques for in vitro antigiardial activity at six concentrations with three-fold dilutions (10, 3.3, 1.1, 0.37, 0.122, 0.04 μg/mL). IC50 values (inhibition concentration) were determined.

Where [3] appears, read: lowest concentration completely inhibiting trophozoite motility, 24 hours, anaerobic chamber.
The mark [4] stands for this setting: average IC50 converted with MW, read-out: μM IC50.
[5] abbreviates: replicate 1, six concentrations, three-fold dilutions 10-0.04 μg/mL.
Where [6] appears, read: replicate 2, six concentrations, three-fold dilutions 10-0.04 μg/mL.
Where [7] appears, read: replicate 3, six concentrations, three-fold dilutions 10-0.04 μg/mL.

For orientation: IC50 means the concentration that inhibits the measured activity by half.

Regarding “mPEG21, metronidazole carbonate [mPEG21 metronidazole carbonate]”, in experiment [1], the “Fold Difference (Parent vs. Derivative)” value is listed as 256 and the “activity relative to parent metronidazole” value was “reductions of activity”. The MIC in experiment [1] (setting [3]) was 1000 µg/mL.

As for mPEG1k metronidazole carbonate, in experiment [1], the “Fold Difference (Parent vs. Derivative)” value is on record as more than 256 and the “activity relative to parent metronidazole” value is recorded as “reductions of activity”. The MIC in experiment [1] (setting [3]) was more than 1000 µg/mL.

With `COCCOCCOCCOCCOCCOCCOCCOC(=O)OCCn1c([N+](=O)[O-])cnc1C` [PEG7 Metronidazole carbonate, mPEG7 metronidazole carbonate], the half-inhibitory concentration (IC50) in experiment [2] (setting [4]) was determined as 7.51 µM. In addition, in experiment [2] (average of IC50 1-3), the “Average IC50” value came out at 4.03 µg/mL. In experiment [2] (setting [5]), the “IC50 1” value is 4.5 µg/mL (≈ 8.37 µM). Further, the “IC50 2” value in experiment [2] (setting [6]) stood at 4.2 µg/mL (≈ 7.81 µM). Also, the “IC50 3” value in experiment [2] (setting [7]) turned out to be 3.4 µg/mL (≈ 6.32 µM).

For the compound `COCCOCCOCCOC(=O)OCCn1c([N+](=O)[O-])cnc1C` [mPEG3 metronidazole carbonate], the IC50 in experiment [2] (setting [4]) stood at 2.88 µM. In experiment [2] (average of IC50 1-3), the “Average IC50” value amounted to 1.04 µg/mL. The “IC50 1” value in experiment [2] (setting [5]) amounted to 0.82 µg/mL (≈ 2.27 µM). The “IC50 2” value in experiment [2] (setting [6]) turned out to be 1.1 µg/mL (≈ 3.04 µM). Moreover, the “IC50 3” value in experiment [2] (setting [7]) was 1.2 µg/mL (≈ 3.32 µM). The “MIC” value in experiment [1] (Giardia intestinalis) and in experiment [1] (setting [3]) was 7.8 µg/mL (≈ 21.6 µM) in each case. Besides, the “Fold Difference (Parent vs. Derivative)” value in experiment [1] is reported as 2.

In the case of `COCCOCCOCCOCCOCCOCCOCCOCCOCCOCCOCCOC(=O)OCCn1c([N+](=O)[O-])cnc1C` [mPEG11 metronidazole carbonate], in experiment [1], the “Fold Difference (Parent vs. Derivative)” value came to 256 and the “activity relative to parent metronidazole” value is “reductions of activity”. Further, the MIC in experiment [1] (setting [3]) is 1000 µg/mL (≈ 1400 µM).

For `Cc1ncc([N+](=O)[O-])n1CCO` [Metronidazole, reference compound], the IC50 in experiment [2] (Giardia duodenalis, average IC50 converted with MW, read-out: μM IC50) was 3.41 µM; in experiment [2] (Giardia duodenalis, average of IC50 1-3, read-out: Average IC50) it was 0.58 µg/mL; in experiment [2] (Giardia duodenalis, replicate 1, six concentrations, three-fold dilutions 10-0.04 μg/mL, read-out: IC50 1) it was 0.75 µg/mL; in experiment [2] (Giardia duodenalis, replicate 2, six concentrations, three-fold dilutions 10-0.04 μg/mL, read-out: IC50 2) it was 0.3 µg/mL; in experiment [2] (Giardia duodenalis, replicate 3, six concentrations, three-fold dilutions 10-0.04 μg/mL, read-out: IC50 3), 0.7 µg/mL; in experiment [2] (setting [4]), 3.96 µM. In addition, the “Average IC50” value in experiment [2] (average of IC50 1-3) is 0.68 µg/mL. Further, the MIC was 3.9 µg/mL (≈ 22.8 µM) in experiment [1] (Giardia duodenalis, ATCC30888, Giardia intestinalis, read-out: MIC) and 3.9 µg/mL (≈ 22.8 µM) in experiment [1] (Giardia duodenalis, ATCC30888, lowest concentration completely inhibiting trophozoite motility, 24 hours, anaerobic chamber, read-out: MIC). The “Fold Difference (Parent vs. Derivative)” value in experiment [1] is 1.
